US10801025B2, “MicroRNA therapy for pancreatic cancer” (Indiana University Research and Technology Corporation, priority 2016, dated 2020)

Key:
[1] = tested on: Panc-1 and MIA PaCa-2 cells; test: Cell viability, Cell Counting Kit-8 (CCK8); format: cell-based, human; details: 10 μM BafA1 in combination with 10 μM gemcitabine, 48 hours, compared to gemcitabine alone
Description: 5×10^3 pancreatic cancer cells per well (Panc-1, MIA PaCa-2, or COLO 357) were plated in 96-well plates and grown at 37° C. for 24 hours. Cells were then transfected with 20 nM mimic control or miR-29a mimic using DharmaFECT® 1 for 24 hours. Transfection media was then removed and replaced with complete media, and cells were allowed to recover for 24 hours and subsequently treated with varying concentrations of gemcitabine (0 μM, 0.1 μM, 1 μM, 10 μM, 100 μM). Cell viability was measured at 72 hours post-gemcitabine treatment by adding 10 μl Cell Counting Kit-8 (CCK8) reagent (Dojindo, CK04) and absorbance was measured at 450 nm. For cell viability with Chloroquine (CQ) and BafilomycinA1 (BafA1) treatment, cells were treated with 25 μM CQ (Sigma Aldrich, C6628) or 10 μM BafA1 (Sigma Aldrich, B1793) in combination with 10 μM gemcitabine for 48 hours, and viability was measured using CCK8 kit as described above.

Panc-1 cells = test: Autophagy flux immunoblotting (LC3B, p62); format: cell-based, human; details: 25 μM CQ added to control mimic cells
Description: Cells were then transfected with 10 nM control or miR-29a mimics using DharmaFECT®. 24 hours post-transfection, cells were treated with 25 μM CQ in complete media for 3-6 hours. Subsequently, total proteins were harvested and subjected to western blot analysis as described above.

| Compound | cancer cell viability [1] | LC3BI and II and p62 accumulation (Panc-1 cells) |
| --- | --- | --- |
| CO/C1=C\C(C)=C\[C@@H](C)[C@@H](O)[C@@H](C)C/C(C)=C/C=C/[C@H](OC)[C@@H]([C@@H](C)[C@@H](O)[C@H](C)[C@@]2(O)C[C@@H](O)[C@H](C)[C@@H](C(C)C)O2)OC1=O [BafA1, BafilomycinA1] | decreased cancer cell viability |  |
| CCN(CC)CCCC(C)Nc1ccnc2cc(Cl)ccc12 (centres unmarked) [CQ, Chloroquine] |  | robust net increase |
